Source: PubChem BioAssay (NCI)
“And” between values parts separate entries of the source, which are not always exact repeats. Identical values can stand only once.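 Tested at 5 concentrations; 48 h exposure; 96-well plates; endpoints linearly interpolated, else capped at highest concentration. GI50 = concentration required for 50% inhibition of growth. The concentration for full growth arrest is given as TGI.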

Tests used:
Assay in all cases: NCI tumour cell line growth inhibition, 48 h
IGROV1 ovarian = test system: IGROV1 ovarian
UACC-62 melanoma = test system: UACC-62 melanoma
T-47D breast = test system: T-47D breast
DU-145 prostate = test system: DU-145 prostate
SF-539 CNS = test system: SF-539 CNS
CAKI-1 renal = test system: CAKI-1 renal
MDA-MB-231 breast = test system: MDA-MB-231 breast
OVCAR-8 ovarian = test system: OVCAR-8 ovarian
SW-620 colon = test system: SW-620 colon
MALME-3M melanoma = test system: MALME-3M melanoma

SMILES	GI50 (IGROV1 ovarian)	TGI (IGROV1 ovarian)	GI50 (UACC-62 melanoma)	TGI (UACC-62 melanoma)	GI50 (T-47D breast)	TGI (T-47D breast)	GI50 (DU-145 prostate)	TGI (DU-145 prostate)	GI50 (SF-539 CNS)	TGI (SF-539 CNS)	GI50 (CAKI-1 renal)	TGI (CAKI-1 renal)	GI50 (MDA-MB-231 breast)	TGI (MDA-MB-231 breast)	GI50 (OVCAR-8 ovarian)	TGI (OVCAR-8 ovarian)	GI50 (SW-620 colon)	TGI (SW-620 colon)	GI50 (MALME-3M melanoma)	TGI (MALME-3M melanoma)
CC(=O)OC1OC([C@H]2c3cccc(O)c3C(=O)c3c(O)cc(C)cc32)C(O)C(O)C1O (stereo not given in full)	224 nM	> 100 µM	< 21.9 nM	1.41 µM	31.9 nM	> 41.1 µM	0.281 µM	12.5 µM	121 nM	7.08 µM	0.0773 µM	0.544 µM	18.8 nM	0.0671 µM	0.0294 µM	0.0873 µM	0.112 µM	14.1 µM		
Cc1cn(-c2cc(NC(=O)c3cccc(C#Cc4cccc5[nH]nc(N)c45)c3)cc(C(F)(F)F)c2)cn1	5290 nM	83.2 µM	2540 nM	12.7 µM	3390 nM	18.5 µM	10.3 µM	40.7 µM	1300 nM	14.3 µM	4.23 µM	16.6 µM	2350 nM	16.7 µM	4.99 µM	36.3 µM	4.22 µM	> 100 µM	1810 nM	10.9 µM
NCCCNCCS		> 100 µM		> 100 µM		> 100 µM		> 100 µM		> 100 µM		> 100 µM		> 100 µM		> 100 µM	> 100 µM and 46.3 µM	> 100 µM		> 100 µM
CCN1C(=O)/C(=C/c2c(Cl)[nH]c3cc(C)c(OC)cc23)c2ccccc21	2070 nM	> 100 µM	526 nM	23.7 µM	3760 nM	> 100 µM	3.29 µM	> 100 µM	251 nM	0.52 µM	5.45 µM	> 100 µM	2430 nM	54.1 µM	4.29 µM	> 100 µM	3.67 µM	> 100 µM	14900 nM	70.6 µM
C=C(C)C1CC2(C)C(C)CC(O)CC2C(OC(=O)C=C(C)C)C1O (stereo not given)		> 100 µM		> 100 µM		> 100 µM		> 100 µM		> 100 µM		> 100 µM		> 100 µM		> 100 µM				> 100 µM
O=c1[nH]c2ccccc2cc1-c1nc2ccc(Cl)cc2[nH]1	1360 nM	> 100 µM	2830 nM	> 100 µM	3330 nM	> 100 µM	7.68 µM	64.2 µM	4130 nM	17.2 µM	1.02 µM	> 100 µM	3250 nM	85.9 µM	6.51 µM	> 100 µM	4.81 µM	> 100 µM	> 100000 nM	> 100 µM
Cc1cc(Cl)ccc1OCC(=O)Nc1nc2c(Cl)cccc2s1	> 100000 nM	> 100 µM	7410 nM	> 100 µM	> 100000 nM	> 100 µM	26.4 µM	> 100 µM	17400 nM	> 100 µM	> 100 µM	> 100 µM	16200 nM	91.9 µM	15.9 µM	29.4 µM	> 100 µM	> 100 µM	> 100000 nM	> 100 µM
C=CC(=O)N1CCC(Oc2cc3c(Nc4ccc(Cl)c(Cl)c4F)ncnc3cc2OC)CC1	85.5 nM and 10.4 nM	4.39 µM and 1.72 µM	3250 nM and 2150 nM	18.7 µM and > 10 µM	< 10 nM and 17.8 nM	25.9 µM and > 10 µM		15.4 µM and > 10 µM	1570 nM and 1780 nM	10 µM and 8.4 µM		12.6 µM and 2.36 µM	3790 nM and 1650 nM	23.8 µM and > 9.63 µM	4.52 µM and 1.91 µM	28.6 µM and > 10 µM	10.3 µM and 4.24 µM	34.2 µM and > 10 µM	7360 nM and > 5350 nM	23.9 µM and > 10 µM
Nc1n[nH]c2cccc(C#Cc3cccc(NC(=O)c4cccc(C(F)(F)F)c4)c3)c12	1530 nM	4.31 µM	2540 nM	11.4 µM	1810 nM	8.1 µM	5.69 µM	17.6 µM	1190 nM	3.47 µM			1500 nM	6.5 µM	4.82 µM	16.6 µM	3.22 µM	19.5 µM	446 nM	10.9 µM
NC(CSC(c1ccccc1)(c1ccccc1)c1ccccc1)C(=O)NCC(=O)O (stereo not given)	10700 nM	> 100 µM	7250 nM	> 100 µM	11600 nM	> 100 µM	18.9 µM	> 100 µM	2540 nM	7.46 µM	37.1 µM	> 100 µM	2650 nM	9.42 µM	5.35 µM	> 100 µM	3.59 µM	> 100 µM	5300 nM	> 100 µM
COC(=O)c1ccc2[nH]c(O)c(C(=Nc3ccc(N(C)C(=O)CN4CCN(C)CC4)cc3)c3ccc4c(c3)OCO4)c2c1	176 nM	1.52 µM	2100 nM	6.86 µM	739 nM	8 µM	1.03 µM	6.06 µM	341 nM	1.31 µM	0.26 µM	4.07 µM	1080 nM	2.76 µM	0.774 µM	7.34 µM	0.348 µM	2.21 µM	895 nM	2.29 µM
Nc1ncc(-c2cnn(C3CCNCC3)c2)cc1-c1nc2cc(Cl)ccc2o1	1040 nM	2.43 µM	1960 nM	3.65 µM	1620 nM	3.34 µM	1.63 µM	3.08 µM	1550 nM	2.91 µM	1.58 µM	3.09 µM	1660 nM	3.23 µM			0.363 µM	1.34 µM	1710 nM	3.37 µM
Cc1ccc(C)c(NC(=O)CC2Sc3ccccc3NC2=O)c1 (stereo not given)		36.6 µM and > 76.3 µM		> 100 µM	17400 nM and > 63100 nM	83.9 µM and > 100 µM		> 100 µM		41.2 µM and 68.8 µM	18.9 µM and 45.2 µM	33.1 µM and 99.1 µM	5080 nM and 34800 nM	28.9 µM and > 65.6 µM		27 µM and 45.3 µM	26.2 µM and > 77.1 µM	> 100 µM	27800 nM and 64800 nM	48.2 µM and > 100 µM
C[C@]12CCc3sc(Nc4ccc(OC(F)(F)F)cc4)nc3C1=CC[C@@H]1[C@@H]2CC[C@]2(C)C(=O)CC[C@@H]12	3320 nM	10.8 µM	3030 nM	10.3 µM	2150 nM	6.43 µM	4.31 µM	25.1 µM	1050 nM	2.72 µM	3.21 µM	13.2 µM	2420 nM	7.84 µM	3.49 µM	25 µM	2.21 µM	5 µM	3450 nM	16.8 µM
O=C(NC(=O)c1c(F)cccc1F)Nc1cccc(Oc2ncc(Cl)cn2)c1		> 100 µM		> 100 µM		> 100 µM		> 100 µM		> 100 µM		> 100 µM		> 100 µM		> 100 µM		> 100 µM		> 100 µM
CSC(SC)(C(=O)O)c1cc(-c2c(Cl)cccc2Cl)no1		> 100 µM		> 100 µM		> 100 µM		> 100 µM		> 100 µM		> 100 µM		> 100 µM		> 100 µM		> 100 µM		> 100 µM
O=C(/C=C/c1ccccc1)Nc1ncc(Cc2ccccc2Cl)s1	477 nM	> 100 µM	326 nM	> 100 µM	513 nM	> 100 µM	0.41 µM	> 100 µM	223 nM	0.634 µM	0.329 µM	> 100 µM	668 nM	> 100 µM	0.509 µM	> 100 µM	0.413 µM	> 100 µM	365 nM	> 100 µM
N[C@H](C(=O)O)[C@@H]1CC(Cl)=NO1	4410 nM	465 µM	35100 nM	401 µM		> 1000 µM	99.6 µM	> 1000 µM	25400 nM	916 µM	23.9 µM	160 µM		> 1000 µM	22.2 µM	502 µM	7.48 µM	> 1000 µM		542 µM
O=C(O)CSCCc1ccccc1		> 100 µM		> 100 µM		> 100 µM		> 100 µM		> 100 µM		> 100 µM		> 100 µM		> 100 µM		> 100 µM		> 100 µM
CN(c1ccc(NC(=O)Nc2c(Cl)cccc2Cl)cc1)c1ccnc(Nc2cccc(CS(C)(=O)=O)c2)n1	4570 nM	> 17 µM	3110 nM	8.36 µM	4460 nM	13.2 µM	3.07 µM	6.72 µM	304 nM	6.4 µM	4.53 µM	21 µM	4490 nM	16.9 µM	2.31 µM	6.82 µM	1.62 µM	> 16.8 µM	1530 nM	> 14.4 µM
COc1cc(C2c3cc4c(cc3OC(C)(N3CCCC3)C2C)OCO4)cc(OC)c1OC (stereo not given)		46.7 µM		19.1 µM		> 100 µM		2.57 µM		0.716 µM		> 20.2 µM		2.42 µM				> 100 µM		> 55.2 µM
CCCCCCCCn1ccc2cc(NC(=O)Cn3cc(CN4CCCCCC4)nn3)ccc21	1720 nM	3.33 µM	1930 nM	3.45 µM	1660 nM	3.78 µM	1.97 µM	3.81 µM	1760 nM	3.21 µM	1.49 µM	2.89 µM	1740 nM	3.47 µM	1.87 µM	3.73 µM	1.73 µM	3.33 µM	1670 nM	3.2 µM
CCOc1cccc(/C=N/NC(=O)c2cccc(Nc3ccnc(C(F)(F)F)c3)c2)c1O	852 nM	> 52.6 µM	551 nM	11.7 µM	814 nM	19 µM	1.1 µM	> 47.3 µM	1320 nM	10.6 µM	0.772 µM	32 µM	888 nM	> 91.1 µM	1.12 µM	37 µM	3.04 µM	> 88.7 µM	1820 nM	18.9 µM
CNC(=O)OCc1nc(SSC(C)(C)C)n(C)c1COC(=O)NC		22.9 µM		5.09 µM		7.4 µM		33.3 µM		10.6 µM		3.94 µM		6.95 µM		5.35 µM		3.67 µM		3.76 µM
CNC(=O)OCc1c(COC(=O)NC)c(-c2ccc(-c3ccccc3)cc2)n(C)c1C		12 µM		5.46 µM		35.2 µM		9.4 µM		8.37 µM		5.14 µM		10.2 µM		10.4 µM		28.3 µM		10.6 µM
CC(C)C(O)(C(C)C)C(C)C		> 100 µM		> 100 µM		> 100 µM		> 100 µM		> 100 µM		> 100 µM		> 100 µM		> 100 µM				> 100 µM
CC(C)(C)c1cc([N+](=O)[O-])cc([N+](=O)[O-])c1O		> 10 µM		> 10 µM		> 10 µM		> 10 µM		> 10 µM		> 10 µM		> 10 µM		> 10 µM		> 10 µM		
CC/C=C\C[C@H]1CC=C2C(=O)C=C[C@@H]2CC=CCCCC(=O)O[C@@H](CCCCC)CC=C2C(=O)C=C[C@@H]2CC=CCCCC(=O)O[C@@H](CCCCC)CC=C2C(=O)C=C[C@@H]2CC=CCCCC(=O)O[C@@H](CCCCC)CC=C2C(=O)C=C[C@@H]2CC=CCCCC(=O)O1	2320 nM	7.81 µM	1520 nM	3.59 µM	1810 nM	5.12 µM	2.68 µM	> 7.9 µM	2220 nM	> 7.9 µM			1910 nM	4.99 µM	2.29 µM	> 7.9 µM	2.54 µM	> 7.9 µM	2770 nM	> 7.9 µM
COc1cc(Nc2ncccc2C(=O)Nc2nc3ccc(F)cc3s2)cc(OC)c1OC	1770 nM	6.89 µM			2300 nM	7.86 µM	5.5 µM	> 100 µM	3840 nM	> 100 µM	3.15 µM	> 100 µM	4610 nM	> 100 µM	3.62 µM	> 100 µM			3270 nM	> 100 µM
